Measurements taken from patent US20250019344A1, “CREATINE CARBONATE AND METHODS OF PRODUCTION AND USES” (ThermoLife International, LLC, priority 2023, published 2025).

Experiments:
Format in all cases: in vivo, human
[1] = Gastrointestinal tolerability after oral creatine supplementation in a subject; details: for gastrointestinal side effects: 20 g once per day with 1000 ml of water, monohydrate for 5 consecutive days, carbonate after 14 days washout
Method: A subject, trained, was administered 5 g creatine carbonate and monitored for any gastrointestinal tract symptoms. […] In contrast, the subject would develop a bloated stomach with creatine supplements currently on the market.
(§1) At the end on day 5, the subject was able to perform 8 knee extensions at 80% maximum weight (200 lbs.). This was 2 more than their usual 6 extensions with this weight (control). So, creatine supplementation with creatine monohydrate improved the subject's physical performance though with gastrointestinal side effects.
(§2) After a washout period of 14 days, where the subject ingested no creatine supplements, they began a second period of creatine supplementation with 20 g creatine carbonate, also taken once per day with 1000 ml water. […] At the end of the creatine supplementation with creatine carbonate, the subject again evaluated the effect of creatine supplementation with knee extension exercises at 80% maximum weight (200 lbs.). They performed 10 extensions, which was better than either the control or after 5 days of creatine monohydrate supplementation.

[2] = Knee extension exercise at 80% maximum weight after creatine supplementation; details: at end of supplementation, 20 g once per day with 1000 ml water; usual 6 extensions (control)
Description: as §1, §2

[3] = Blood lactate after treadmill exercise (Heartscare C1 lactate monitoring system); details: person; treadmill 5 miles per hour for 10 minutes, 60 minutes after ingesting 10 g; without supplement 8.1 mmol/L
Method: A recreationally active person used the treadmill at 5 miles per hour for 10 minutes and measured their lactate levels using a Heartscare C1 lactate monitoring system. Their blood lactate measured at 8.1 mmol/L. After a two-day washout period, they repeated the same treadmill exercise 60 minutes after ingesting 10 g creatine carbonate. Their blood lactate measured at 7.1 mmol/L. Thus, even without creatine loading, creatine carbonate can reduce lactate production from exercise, as measured by blood lactate level.

For `CN(CC(=O)O)C(=N)N.O` [creatine monohydrate, reference compound], the gastrointestinal side effects [1] was “gastrointestinal disturbances, such as diarrhea and stomach bloating, occurred” and the “knee extensions performed at 80% maximum weight (200 lbs.)” value [2] was 8.

In the case of `CN(CC(=O)O)C(=N)N.O=C(O)O` [creatine carbonate], the gastrointestinal side effects [1] is reported as “Besides light belching, no other gastrointestinal side effects were noted”, the gastrointestinal tract symptoms ([1]; subject, trained, 5 g administered) is reported as “did not experience any unwanted gastrointestinal tract issues except a little belching” and the “onset of gastrointestinal distress” value ([1]; up to 20 grams orally administered to subjects) is reported as “without onset of gastrointestinal distress”. For the same compound, the blood lactate [3] was 7.1 mmol/L and the “knee extensions performed at 80% maximum weight (200 lbs.)” value [2] was 10.
